Assay results from ChEMBL document CHEMBL3045717, “Synthesis and pharmacological properties of some novel pyrazolidine and pyrazole derivatives” (2012).

Columns and labels:
Format in all cases: functional
Details in all cases: read-out: DIZ
Candida albicans [1] = test: Antifungal activity against Candida albicans at 100 ug/ml after 48 to 72 hr by agar diffusion cup-plate method
Bacillus subtilis [2] = test: Antibacterial activity against Bacillus subtilis at 200 ug/ml after 24 hr by agar diffusion cup plate method
Escherichia coli [3] = test: Antibacterial activity against Escherichia coli at 200 ug/ml after 24 hr by agar diffusion cup-plate method
Candida albicans [4] = test: Antifungal activity against Candida albicans at 50 ug/ml after 48 to 72 hr by agar diffusion cup-plate method
Aspergillus niger [5] = test: Antifungal activity against Aspergillus niger at 50 ug/ml after 48 to 72 hr by agar diffusion cup-plate method
Escherichia coli [6] = test: Antibacterial activity against Escherichia coli at 100 ug/ml after 24 hr by agar diffusion cup-plate method
Aspergillus niger [7] = test: Antifungal activity against Aspergillus niger at 200 ug/ml after 48 to 72 hr by agar diffusion cup-plate method
Staphylococcus aureus [8] = test: Antibacterial activity against Staphylococcus aureus at 200 ug/ml after 24 hr by agar diffusion cup-plate method
Pseudomonas aeruginosa [9] = test: Antibacterial activity against Pseudomonas aeruginosa at 200 ug/ml after 24 hr by agar diffusion cup-plate method
Staphylococcus aureus [10] = test: Antibacterial activity against Staphylococcus aureus at 100 ug/ml after 24 hr by agar diffusion cup-plate method
Pseudomonas aeruginosa [11] = test: Antibacterial activity against Pseudomonas aeruginosa at 100 ug/ml after 24 hr by agar diffusion cup-plate method
Pseudomonas aeruginosa [12] = test: Antibacterial activity against Pseudomonas aeruginosa at 50 ug/ml after 24 hr by agar diffusion cup-plate method
Escherichia coli [13] = test: Antibacterial activity against Escherichia coli at 50 ug/ml after 24 hr by agar diffusion cup-plate method
Staphylococcus aureus [14] = test: Antibacterial activity against Staphylococcus aureus at 50 ug/ml after 24 hr by agar diffusion cup-plate method
Bacillus subtilis [15] = test: Antibacterial activity against Bacillus subtilis at 50 ug/ml after 24 hr by agar diffusion cup plate method
Candida albicans [16] = test: Antifungal activity against Candida albicans at 200 ug/ml after 48 to 72 hr by agar diffusion cup-plate method
Aspergillus niger [17] = test: Antifungal activity against Aspergillus niger at 100 ug/ml after 48 to 72 hr by agar diffusion cup-plate method
Bacillus subtilis [18] = test: Antibacterial activity against Bacillus subtilis at 100 ug/ml after 24 hr by agar diffusion cup plate method

| Compound | zone of inhibition at 100 µg/mL (Candida albicans [1]) [mm] | zone of inhibition at 200 µg/mL (Bacillus subtilis [2]) [mm] | zone of inhibition at 200 µg/mL (Escherichia coli [3]) [mm] | zone of inhibition at 50 µg/mL (Candida albicans [4]) [mm] | zone of inhibition at 50 µg/mL (Aspergillus niger [5]) [mm] | zone of inhibition at 100 µg/mL (Escherichia coli [6]) [mm] | zone of inhibition at 200 µg/mL (Aspergillus niger [7]) [mm] | zone of inhibition at 200 µg/mL (Staphylococcus aureus [8]) [mm] | zone of inhibition at 200 µg/mL (Pseudomonas aeruginosa [9]) [mm] | zone of inhibition at 100 µg/mL (Staphylococcus aureus [10]) [mm] | zone of inhibition at 100 µg/mL (Pseudomonas aeruginosa [11]) [mm] | zone of inhibition at 50 µg/mL (Pseudomonas aeruginosa [12]) [mm] | zone of inhibition at 50 µg/mL (Escherichia coli [13]) [mm] | zone of inhibition at 50 µg/mL (Staphylococcus aureus [14]) [mm] | zone of inhibition at 50 µg/mL (Bacillus subtilis [15]) [mm] | zone of inhibition at 200 µg/mL (Candida albicans [16]) [mm] | zone of inhibition at 100 µg/mL (Aspergillus niger [17]) [mm] | zone of inhibition at 100 µg/mL (Bacillus subtilis [18]) [mm] |
| --- | --- | --- | --- | --- | --- | --- | --- | --- | --- | --- | --- | --- | --- | --- | --- | --- | --- | --- |
| O=C1CC(=O)N(c2ccc([N+](=O)[O-])cc2[N+](=O)[O-])N1 | 10.1 | 16 | 20.2 | 6.2 | 10.1 | 18.1 | 14.1 | 18.1 | 16.1 | 12 | 13.2 | 12.1 | 16.2 | 8.4 | 10.2 | 10.2 | 12.2 | 12 |
| O=C1CC(CCl)=NN1c1ccc([N+](=O)[O-])cc1[N+](=O)[O-] | 23 | 28 | 30.4 | 14.2 | 14 | 23 | 26.6 | 28.1 | 28.6 | 20 | 22.1 | 14 | 14.2 | 15 | 12.2 | 26.4 | 22.1 | 20.1 |
| O=[N+]([O-])c1ccc(NNC(=S)Nc2ccccc2)c([N+](=O)[O-])c1 | 14.1 | 18.4 | 18.6 | 11.5 | 10 | 14.1 | 16.2 | 18 | 20.2 | 14 | 14.2 | 12 | 10.2 | 10 | 10.2 | 18.4 | 14.2 | 14.1 |
| Clc1ccccc1C(c1ccccc1)(c1ccccc1)n1ccnc1 [CLOTRIMAZOLE] | 28.4 |  |  | 28.4 | 28.4 |  | 28.4 |  |  |  |  |  |  |  |  | 28.4 | 28.4 |  |
| NC1=NN(c2ccc([N+](=O)[O-])cc2[N+](=O)[O-])C(=O)C1 | 14 | 12 | 20.6 | 12.3 | 8.4 | 16 | 14.3 | 26 | 16.3 | 20 | 12.1 | 8.4 | 12.3 | 14 | 10.4 | 20.8 | 10.1 | 8.1 |
